{
  "source": "patent US12121525B2",
  "about": "“Methods for treating GI syndrome and graft versus host disease” (Sloan Kettering Institute for Cancer Research, priority 2007, dated 2024)",
  "key": {"C57BL/6 hepatocytes [1]": {"tested_on": "C57BL/6 hepatocytes", "type": "cell-based", "settings": "not shown", "procedure": "Whereas Fas-mediated apoptotic death receptor activation requires generation of ceramide-rich platforms in some cell systems, CTL-induced platform generation was assessed in asmase^+/+ and asmase^−/− hepatocytes in the ex vivo model of GvHD. Alloactivated T cells induced rapid generation of ceramide-rich platforms on the surface of the target hepatocytes 10 min following co-incubation (FIG. 16C). Platform generation increased within one minute, peaked at 10 min, and persisted for over 60 min (FIG. 16D). Fas, required for apoptosis in this system, concentrated within the ceramide-rich platform as determined by confocal microscopy.\nPlatforms were detected as previously described. […]; Sigma-Aldrich) for 45 min at 4° C., washed twice in PBS containing 0.1% Triton X-100 and mounted in fluorescent mounting medium (Dako, Carpenteria CA). Fluorescence was detected using an Axiovert S-100 Zeiss fluorescence microscope equipped with a SPOT digital camera. The percentage of cells containing platforms, i.e. those in which the fluorescence condenses onto less than 15% of the cell surface, was determined by counting 150-250 cells per point. Alternately, platforms were identified using a mouse monoclonal anti-ceramide antibody MID 15B4 IgM (1:50 dilution, Alexis Biochemicals), mouse monoclonal anti-Fas CH-11 IgM (1:500 dilution, Upstate Biotechnology) or polyclonal rabbit anti-ASMase antibody 1598 (1:100 dilution) and detected using Cy3-conjugated anti-mouse or anti-rabbit IgM (1:500 dilution, Roche Molecular Biochemicals), respectively. Rabbit polyclonal anti-CD46 (1:1000 dilution, Santa Cruz Biotechnology, Santa Cruz CA) was used as a negative control. In some studies, confocal images were obtained using a Leica TCS SPZ upright confocal microscope. Alternatively, 0.5×10^6hepatocytes were stimulated for the indicated times with CTLs and platform formation was assessed as described."}, "C57BL/6 hepatocytes [2]": {"tested_on": "C57BL/6 hepatocytes", "type": "cell-based", "procedure": "FIGS. 16A-16F. In vivo activated allogeneic CTLs require target hepatocyte ASMase for efficient killing ex vivo. Hepatocytes, isolated as described in Example 1, were coincubated with splenic T cells harvested from lethally-irradiated wild type C57BL/6 recipients 10-14 days following transplantation of LP BM+T cells. FIG. 16A: 2×10^6 GvH-activated CTLs were coincubated with 0.5×10^6 wild type C57BL/6 or B6.MRL.1pr (FasR^−/−) hepatocytes (left panel) in complete medium for 16 hr. […] Apoptosis was quantified following fixation by nuclear bisbenzimide staining. FIG. 16B: asmase^−/− hepatocytes are resistant to apoptosis induced by GvH-activated CTLs. CTL coincubation was performed as in FIG. 16A and apoptosis was quantified 16 hr thereafter. FIG. 16C: Representative images of asmase^+/+ (top left panel) and asmase^−/− (bottom left panel) C57BL/6 hepatocytes following 10 min coincubation in suspension with 2×10^6 GvH-activated T cells. Hepatocytes were fixed and stained with DAPI and Cy-3-labelled anti-ceramide mAb as described in Example 1. Arrows indicate ceramide-rich platform generation on the outer leaflet of the plasma membrane. […] FIG. 16D: Quantification of ceramide-rich platforms in asmase^+/+ and asmase^−/− hepatocytes following incubation with 2×10^6 GvH-activated CTLs. […] Apoptosis was quantified as in FIG. 16A. […] 0.5×10^6 wild type hepatocytes, preincubated with 50 μg/mL nystatin for 30 min and resuspended in RPMI containing 1% lipid-free FBS, were coincubated with 2×10^6 GvH-activated T cells and apoptosis was quantified as in FIG. 16A. […]\nTo assess whether ceramide-mediated raft clustering into membrane platforms is an essential component of cytolytic T cell (CTL)-induced apoptosis of hepatocytes, we blocked raft clustering pharmacologically and examined the impact on alloactivated CTL-induced hepatocyte apoptosis in vitro. […] Co-incubation induced increased hepatocyte apoptosis from a baseline of 4.7±0.7% to 33.8±1.9% by 16 hr, as detected by nuclear morphologic changes (FIG. 16A). […]"}, "splenic T cells [3]": {"tested_on": "splenic T cells", "assay": "Activation-induced cell death (AICD) assay, T cell apoptosis", "type": "cell-based, mouse", "settings": "500 nM; 16 hr", "from_the_text": "To define a role for target cell ASMase in AICD, asmase^+/+, asmase^−/− or MRL.1pr (FasR^−/−) T cells were stimulated for 24 hr with 10 microgam/ml ConA, washed, rested in medium containing 20 U/ml rIL-2 for 24 hr, and finally AICD was initiated by restimulation in medium containing 20 U/ml rIL-2 and increasing concentrations of plate bound anti-CD3 mAb for 24 hr. AICD induction by anti-CD3 mAb conferred ceramide-rich platform generation 4 hr following stimulation (FIG. 19D), evident in 26.4±1.6% of the population of asmase^+/+ T cells compared to 5.1±1.0% of asmase^−/− T cells (p<0.005). Confocal analysis identified colocalization of the sphingolipid GM1 (FIG. 19E) and Fas within ceramide-rich platforms in asmase^+/+ T cells.\nTo characterize the impact of platform generation on AICD, asmase^+/+ and asmase^−/− T cells were induced to undergo AICD and apoptosis was quantified 16 hr thereafter. Apoptosis in asmase^+/+ T cells was anti-CD3 mAb dose-dependent, reaching 32.9±5.2% apoptosis 16 hr post induction (FIG. 19F). […]\nHarvested splenocytes were enriched for T lymphocytes by nylon wool passage, resulting in >90% purity based upon FITC-CD3 mAb staining by flow cytometry. […] Cells were subsequently fixed, stained with 25 μl of 24 μg/ml bis-benzimide trihydrochloride solution (Hoechst #33258; Sigma-Aldrich, Milwaukee Wisc.) and apoptosis was quantified by fluorescence microscopy, as above."}, "C57BL/6 splenocytes [4]": {"tested_on": "C57BL/6 splenocytes", "assay": "MLR-primed CTL-induced splenocyte lysis (51Cr release)", "type": "cell-based, mouse", "settings": "500 nM", "procedure": "To show the generic role of target cell ASMase in T cell-induced lysis, we used two standardized assays for T cell function; MLR-primed CTL-induced splenocyte lysis (FIG. 17) and in vitro activation-induced cell death (AICD) of T cells (FIG. 18). The role of target cell ASMase was assessed in an in vitro activated MLR, in which C57BL/6 splenocyte target cells of asmase^+/+ or asmase^−/− genotype were stimulated for 48 hrs with mitogen, washed and chromium labeled. These cells were then coincubated with effector Balb/c splenocytes activated for 5 days by culture with irradiated C57BL/6 splenocytes. Chromium release was quantified and the % lysis was calculated. […] Washed splenocytes cells were coincubated with increasing ratios of activated effector Balb/c T cells, and ^51Cr release was quantified 6 hour thereafter. […]\nTo evaluate a potential generic role for target cell ASMase in platform generation in T cell-induced lysis, we tested two standardized assays for T cell-mediated cytolysis, MLR-primed CTL-induced splenocyte lysis, and in vitro AICD of T cells. […] Furthermore, MLR-primed CTLs induced 43.2±6.5% asmase^+/+ splenocyte lysis at an effector:target ratio of 50:1 (FIG. 19B), attenuated to 7.3±2.5% lysis in asmase^−/− target cells, as quantified by ^51Cr-release assay. […]"}, "splenic T cells [5]": {"tested_on": "splenic T cells", "assay": "Platform generation in T cells after AICD induction", "settings": "500 nM; not shown"}, "C57BL/6 splenocytes [6]": {"tested_on": "C57BL/6 splenocytes", "assay": "Platform generation on target splenocytes coincubated with MLR-primed CTLs", "settings": "500 nM"}, "C57BL/6 mice": {"tested_on": "C57BL/6 mice", "settings": "intravenous, prior to TBI; cited from earlier work"}},
  "data": [
    {"molecule": "C[C@@H]1[C@H](O)[C@@H](C)/C=C/C=C/CC/C=C/C=C/C=C/C=C/C(O[C@H]2O[C@H](C)[C@@H](O)[C@H](N)[C@@H]2O)CC2O[C@](O)(CC(O)C(O)CCC(O)CC(O)CC(O)CC(=O)O[C@H]1C)CC(O)C2C(=O)O", "note": "(some centres unmarked) [nystatin]", "values": [
      {"measurement": "CTL-induced ceramide-rich platform generation", "setting": "C57BL/6 hepatocytes [1]; wild type hepatocytes, nystatin 50 μg/mL 30 min", "value": "abrogated"},
      {"measurement": "2×10^6 alloactivated CTL-induced hepatocyte apoptosis", "setting": "C57BL/6 hepatocytes [2]; wild type hepatocytes preincubated with 50 μg/mL nystatin for 30 min", "value": "completely inhibited"}
    ]},
    {"molecule": "CCCCCCCCCCCCCCCC(=O)N[C@@H](CO)[C@H](O)CCCCCCCCCCCCCCC", "note": "[C16-dihydroceramide]", "values": [
      {"measurement": "apoptosis of asmase−/− T cells stimulated to undergo AICD", "setting": "splenic T cells [3]", "value": "not"},
      {"measurement": "CTL-induced lysis of asmase−/− target splenocytes", "setting": "C57BL/6 splenocytes [4]", "value": "ineffective"},
      {"measurement": "platform generation in asmase−/− T cells stimulated to undergo AICD", "setting": "splenic T cells [5]", "value": "not"},
      {"measurement": "platform generation on asmase−/− target splenocytes", "setting": "C57BL/6 splenocytes [6]", "value": "ineffective"},
      {"measurement": "CTL-induced platform generation in asmase−/− hepatocytes", "setting": "C57BL/6 hepatocytes [1]", "value": "failed to restore"}
    ]},
    {"molecule": "C/C=C/[C@H]1O[C@@](O)([C@@H](C)[C@H](O)[C@H](C)[C@H]2OC(=O)/C(OC)=C/C(C)=C/[C@@H](C)[C@@H](O)[C@@H](CC)[C@@H](O)[C@H](C)C/C(C)=C/C=C/[C@@H]2OC)C[C@@H](O[C@H]2C[C@@H](O)[C@H](OC(N)=O)[C@@H](C)O2)[C@@H]1C", "note": "[CMA, concanamycin A]", "values": [
      {"measurement": "CTL-induced hepatocyte apoptosis", "setting": "C57BL/6 hepatocytes [2]; CTLs incubated 2 hr with 100 ng/ml CMA, wild type hepatocytes, 16 hr", "value": "no effect"}
    ]},
    {"molecule": "bFGF: endothelial cell survival factor", "values": [
      {"measurement": "crypt stem cell clonogens", "setting": "C57BL/6 mice", "value": "preserved"},
      {"measurement": "lethality from the GI syndrome", "setting": "C57BL/6 mice", "value": "protected"},
      {"measurement": "radiation-induced endothelial apoptosis of the intestinal microvascular system", "setting": "C57BL/6 mice", "value": "attenuated"}
    ]}
  ]
}
